Results as given in US20060134119A1, “Drugs containing galectin 9” (priority 2003, published 2006).

How the values were obtained:
[1] = test system: THP-1; experiment: Apoptosis analysis by PI method in THP-1 cells; format: cell-based
Description: (§1) MOLT-4 (T cell), Jurkat (T cell), BALL-1 (B cell), THP-1 (acute monocytic leukemia derived cell), and HL60 (acute promyelotic leukemia derived cell) cells were obtained from American Type Culture Collection (ATCC). All the cell lines were maintained in an RPMI-1640 medium (Sigma, St. Louis, US) supplemented with 10% FCS in 5% Co2 at 37° C. Lactose (30 mM) was added to the culture medium to inhibit Gal-9 activity. The same concentration of sucrose was used as a control.
(§2) Cells that underwent apoptosis induction were centrifuged at 4° C. for 5 min at 1,000 rpm, and the cell pellet was resuspended in PBS (300 μL), and adjusted to a final concentration of 70% by gradually adding 100% cold ethanol (700 μL) to the suspended cells with vortexing. […] Stained cells were analyzed by flow cytometry (Sandstrom, K. et al., J Immunol Methods, 240: 55 (2000) and Zhang L. et al., Cancer Lett, 142: 129 (1999)) after removing aggregated cells through a nylon mesh and increasing the cell volume with PBS. […]
(§3) Apoptotic activity was measured by the PI method. […] Subsequently, incubation with PI leads to a reduction in the fluorescence intensity of apoptotic cells. Apoptosis was examined by the percentage of the cells wherein their fluorescence intensity was reduced. […]

[2] = test system: HL-60; experiment: Apoptosis analysis by PI method in HL60 cells; format: cell-based
Description: as §1, §2, §3

[3] = test system: MCF-7; experiment: Apoptosis analysis by PI method in MCF-7 cells; format: cell-based; conditions: incubation with galectin-9 at least 48 hr or more
Description: (§4) Apoptotic activity was measured by the PI method. When cells are incubated with galectin-9, washed, then subjected to alcohol-fixation, and fragmented DNAs flow out of the cell. Subsequently, incubation with PI leads to a reduction in the fluorescence intensity of apoptotic cells. Apoptosis was examined by the percentage of the cells wherein their fluorescence intensity was reduced. […] This induction was at the same level as H2O2 (hydrogen peroxide solution) that was used as a positive control. In addition, the same results were obtained by another method for examining apoptosis, TUNEL assay.

[4] = test system: Daudi; experiment: Apoptosis analysis by PI method in Daudi cells; format: cell-based; conditions: incubation with galectin-9 at least 48 hr or more
Description: as §4

[5] = test system: HMC-1; experiment: Apoptosis analysis by PI method in HMC-1 cells; format: cell-based; conditions: incubation with galectin-9 at least 48 hr or more
Description: as §4

[6] = test system: CD4+ T cells; experiment: Apoptosis induction in peripheral blood CD4+ T cells, resting or anti-CD3 Ab-activated; format: cell-based, human; conditions: galectin (+), 1 μM rGal-9
Description: To prepare a well plate coated with anti-CD3 Ab, 24 well palates were incubated with TBS solution (pH 8.0) containing 3 μg/mL anti-CD3 Ab (Inmunotech, Marseille, France) per well at 4° C. overnight, and each well was washed with PBS after removing anti-CD3 Ab solution.
Mononuclear leukocyte fractions were isolated from heparinized blood using HISTOPAQUE (Registered trademark, SIGMA). CD4-Positive Isolation Kit (DYNAL, Oslo, Norway) was used for isolation of CD4+ T cells and Dynabeads M-450 CD8 (Registered trademark, DYNAL, Oslo, Norway) for isolation of CD8+ T cells, respectively, according to the manufacturer's instructions.
To activate T cells, CD4+ or CD8+ cells at 1×10^6 cells/mL in an RPMI-1640 medium containing 10% FCS were incubated on the plate coated with anti-CD3 Ab for 20 to 24 hr at 37° C. in a 5% CO2 incubator, and incubated with rGal-9 [(His)6-Gal-9(S)] at 37° C. in a 5% CO2 incubator. Then apoptosis assay was conducted as described in (c). That is, cells were incubated with 50 μg/mL PI (SIGMA) at 37° C. for 10 min in the dark. Stained cells were analyzed by flow cytometry (Sandstrom, K. et al., J Immunol Methods, 240: 55 (2000) and Zhang L. et al., Cancer Lett, 142: 129 (1999)).
Apoptosis assay was also conducted for non-activated (resting) T cells as described above after incubating them with rGal-9 [(His)6-Gal-9(S)] at 37° C. in a 5% Co2 incubator.
For comparison, galectin-1 and -3 treated cells were analyzed.
Next, apoptosis induction by Gal-9 in human peripheral blood T cells was examined. T cells were separated into CD4+ and CD8+ T cells followed by incubation in the presence or absence of anti-CD3 Ab. Resting T cells and anti-CD3 Ab-activated T cells were incubated with 1 μM rGal-9.

[7] = test system: CD4 T Cell; experiment: Apoptosis induction in non-activated normal CD4 T cells (Table 4); format: cell-based; conditions: 1 μM galectin-9, 1 μM galectin-3
Description: (§5) For example, measurements of apoptosis induction in the presence of 1 μM galectin-9 are as shown in Table 4 below (also 1 μM for galectin-3 in Table 4).

[8] = test system: CD8 T Cell; experiment: Apoptosis induction in non-activated normal CD8 T cells (Table 4); format: cell-based; conditions: 1 μM galectin-9, 1 μM galectin-3
Description: as §5

[9] = test system: Jurkat T cells; conditions: 16 hr incubation with 1 mM galectin-9, PI, FACS
Description: (§6) Cytotoxicities in Jurkat T cells, K-562 leukemic cells, and normal lymphocytes were measured by flow cytometry analysis using PI. That is, PI invades into the damaged target cells when PI is added for the last 15 min of 16 hr incubation with 1 mM galectin-9. Fluorescence generated by PI is measured by FACS. Untreated cells were used as a negative control group, formalin-fixed cells as a 100% dead cell group, and H2O2 (hydrogen peroxide solution)-treated cells as a positive control group, respectively.

[10] = test system: K-562 leukemic cells; conditions: 16 hr incubation with 1 mM galectin-9, PI, FACS
Description: as §6

[11] = test system: normal lymphocytes; conditions: Normal Lymphocyte; 16 hr incubation with 1 mM galectin-9; PI, FACS
Description: as §6

## Galectin-9: Recombinant human galectin-9 expressed in E. coli and purified on lactose-agarose
[1]; THP-1, incubation with galectin-9 at least 48 hr or more
  apoptosis induction, Gal9 (+): 61.2
[1]; rGal-9 1 μM, 24 hr, FIG. 3
  apoptosis induction: induced
[2]; HL-60, incubation with galectin-9 at least 48 hr or more
  apoptosis induction, Gal9 (+): 64.6
[2]; rGal-9 1 μM, 24 hr, FIG. 3
  apoptosis induction: induced
[3]
  apoptosis induction, Gal9 (+): 14.1
[4]
  apoptosis induction, Gal9 (+): 58.5
[5]
  apoptosis induction, Gal9 (+): 26.2
[6]; CD3 (+) cells activated on anti-CD3 Ab-coated plates
  apoptosis induction, CD4: 41.7
[6]; CD3 (−) untreated resting cells
  apoptosis induction, CD4: 10.8
[7]
  apoptosis induction, CD4 T Cell Resting: 1.8
[8]
  apoptosis induction, CD8 T Cell Resting: 1.4
[9]
  cytotoxicity, 16 hours: 46.2
[10]
  cytotoxicity, 16 hours: 23.4
[11]
  cytotoxicity, 16 hours: 2.47
